Measured values from paper PMC9398908, “GLP-1-mediated delivery of tesaglitazar improves obesity and glucose metabolism in male mice” (Nature Metabolism, 2022).
“And” between values parts separate entries of the source, which are not always exact repeats. Identical values can stand only once.

How the values were obtained:
[1] = tested on: C57BL/6J DIO mice; assay: Chronic high-dose treatment of DIO mice (14 days, 50 nmol/kg/day): body weight, food intake, fat and lean mass (Fig. 2a–d); assay type: in vivo, mouse; settings: individual mice
Excerpt: Glp1r^−/− mice were kindly provided by D. Drucker (University of Toronto, Canada). All wildtype and knockout mice used in our studies were in-house bred on a C57BL/6J background. […] At the beginning of each experiment, mice were equally distributed into experimental groups according to their body weight and body composition. All animal studies were approved by the State of Bavaria, Germany, or the Insitutional Animal Care and Use Committee of the University of Cincinnati, OH, USA and conducted on the basis of the underlying animal welfare law of the respective countries. Compounds were dissolved in PBS and were s.c. administered with a volume of 5 μl g^−1 body weight in the indicated doses between 15:00 and 16:00.
Fat and lean tissue mass were measured via nuclear magnetic resonance technology (EchoMRI).

[2] = molecular target: T1, hGLP-1R (Homo sapiens, UniProt P43220); assay: Ligand-induced hGLP-1R-Rluc8 internalization (BRET) in mouse MIN6 β-cells; assay type: cell-based; settings: Fig. 1f, in words
T1 construct: host or cells: HEK293T, transient transfection
Experimental: (§1) HEK293T cells (700,000 per well) were seeded in six-well plates and incubated to 70% confluency in DMEM (10% FBS, 1% Pen/Strep). Twenty-four hours following seeding, transient transfections were performed using Lipofectamine 2000 (catalogue no. 11668019, Invitrogen) according to the manufacturer’s protocol without including additional transformation carrier DNA.
(§2) Twenty-four hours following transfection, HEK293T cells or MIN6 cells were washed with PBS and resuspended in FluoroBrite phenol red-free complete media (catalogue no. A1896701, Life Technologies) containing 5% FBS and 2 mM of L-glutamine (catalogue no. 25030081, Life Technologies). 100,000 cells per well were plated into poly-D-lysine-coated (catalogue no. P6403, Sigma-Aldrich) 96-well white polystyrene LumiNunc plates (catalogue no. 10072151, Thermo Fisher Scientific). After 24 h, the media was replaced with PBS (catalogue no. 10010056, Gibco) containing 10 μM of coelenterazine-h (catalogue no. S2011, Promega) or 1:500 dilution of NanoGlo (catalogue no. N1110, Promega). BRET measurements were taken every 30 s–2 min using a PHERAstar FS multi-mode microplate reader. […] The resulting ligand-specific ratiometric BRET signals were normalized to vehicle producing the ‘ligand-induced BRET ratio’[37], followed by an additional normalization step to well-specific baseline readings.

[3] = tested on: C57BL/6J DIO mice; assay: i.p. insulin tolerance test in DIO mice (Fig. 2g,h; Extended Data Fig. 3a,b); assay type: in vivo, mouse; set-up: unit not given here; settings: for AOC: ITT, Suppl. Fig. 3b
Experimental: Glucose tolerance was assessed in 6 h fasted mice after i.p injection of 1.75 g glucose per kg body weight (DIO mice). Insulin tolerance was assessed in 6 h fasted mice after i.p. injection of either 0.75 U Insulin per […] body weight (DIO mice) or 1 U Insulin per […] body weight (db/db mice) (Humalog, Eli Lilly). Tail vein blood glucose was subsequently measured using a handheld glucometer (TheraSense Freestyle) at baseline and after 15, 30, 60 and 120 min.

[4] = molecular target: T1, hGLP-1R; assay: Ligand-induced hGLP-1R-Rluc8 internalization (loss of BRET with Venus-KRAS) in HEK293T cells; assay type: cell-based; settings: HEK293 cells transfected with human GLP-1R; dose response, Fig. 1c; in words
Experimental: as §1, §2

T1 sequence (P43220 24-463): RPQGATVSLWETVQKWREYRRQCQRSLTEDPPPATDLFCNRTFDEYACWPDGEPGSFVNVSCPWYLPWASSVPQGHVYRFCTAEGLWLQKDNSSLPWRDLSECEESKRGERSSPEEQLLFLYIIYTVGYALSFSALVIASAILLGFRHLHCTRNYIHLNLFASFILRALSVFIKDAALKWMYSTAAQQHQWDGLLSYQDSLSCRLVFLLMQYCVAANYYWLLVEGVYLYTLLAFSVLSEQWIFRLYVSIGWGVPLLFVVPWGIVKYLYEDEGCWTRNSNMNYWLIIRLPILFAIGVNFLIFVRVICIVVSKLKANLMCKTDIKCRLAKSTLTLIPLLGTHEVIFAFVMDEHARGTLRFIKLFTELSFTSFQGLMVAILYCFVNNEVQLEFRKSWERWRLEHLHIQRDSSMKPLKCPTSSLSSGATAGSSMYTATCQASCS

CCO[C@@H](Cc1ccc(OCCc2ccc(OS(C)(=O)=O)cc2)cc1)C(=O)O [tesaglitazar, (S)-2-ethoxy-3-(4-(4-((methylsulfonyl)oxy)phenethoxy)phenyl) propanoic acid]
delta Fat mass (%) ([1]; Figure 2c, sheet notes an outlier based on grubbs test): -21.91% and -19.00% and -17.53% and -14.42% and -13.51% and -9.80% and -21.20% and -17.11% | delta lean mass (%) ([1]; Figure 2d): -3.73% and -4.62% and -4.21% and -6.43% and -3.83% and -4.53% and -3.02% and -3.39% | GLP-1R internalization [2]: had no effect | AUC ([3]; DIO mice, Figure 2h, AUC of the insulin tolerance test, individual mice, one conjugate mouse missinjected): 78.83 and 85.05 and 79.73 and 58.88 and 108.1 and 99.38 and 88.2 and 80.48 | AOC ([3]; animal 1 of the group): 151.5 | AOC ([3]; animal 2 of the group): 33 | AOC ([3]; animal 3 of the group): 29.64 | AOC ([3]; animal 4 of the group): 82.26 | AOC ([3]; animal 5 of the group): 109.5 | AOC ([3]; animal 6 of the group): 165 | AOC ([3]; animal 7 of the group): 167 | AOC ([3]; animal 8 of the group): 172 | GLP-1R internalization [4]: had no effect
